Test results: US8163793B2, “Proline derivatives” (Hoffman-La Roche Inc., priority 2009, dated 2012)

Assays:
[1] = target: Cathepsin S (UniProt P25774); assay: Cathepsin enzyme inhibition assay (fluorogenic peptide substrate Z-Val-Val-Arg-AMC), Cathepsin S; type: biochemical, human and mouse; settings: enzyme 1 nM, substrate 20 μM, pH 6.5; read-out: CatS IC50
How it was run: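 Compounds were combined with 1 nM human or mouse enzyme, and substrate then started the reaction. The buffer was potassium phosphate (100 mM, pH 6.5) containing EDTA-Na 5 mM, Triton X-100 0.001% and […] 5 mM.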

[2] = target: Cat L (UniProt P07711); assay: Cathepsin enzyme inhibition assay (fluorogenic peptide substrate Z-Val-Val-Arg-AMC), Cathepsin L; type: biochemical, human and mouse; settings: enzyme 1 nM, substrate 20 μM, pH 6.5; read-out: CatL IC50
How it was run: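 Fluorogenic cleavage of Z-Val-Val-Arg-AMC (20 μM) by 1 nM Cat L was monitored at ex 360/em 465 nm for 20 min, the linear phase. The buffer was 100 mM potassium phosphate pH 6.5 with 5 mM EDTA and DTT. IC50 values were derived by standard methods, in μM.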

| SMILES | IC50 [1] [nM] | IC50 [2] [nM] |
| --- | --- | --- |
| Cc1cc(N2C[C@H](S(=O)(=O)c3ccc(N4CCN(C(C)(C)C)CC4)cc3Cl)C[C@H]2C(=O)NC2(C#N)CC2)n(CCc2ccccc2)n1 [Example 485, (2S,4R)-4-[4-(4-tert-Butyl-piperazin-1-yl)-2-chloro-benzenesulfonyl]-1-(5-methyl-2-phenethyl-2H-pyrazol-3-yl)-pyrrolidine-2-carboxylic acid (1-cyano-cyclopropyl)-amide] | 0.9 | 275 |
| COCCOc1ccc(S(=O)(=O)[C@@H]2C[C@@H](C(=O)NC3(C#N)CC3)N(c3cc(C)nn3C3CCC3)C2)c(Cl)c1 [Example 489, (2S,4R)-4-[2-Chloro-4-(2-methoxy-ethoxy)-benzenesulfonyl]-1-(2-cyclobutyl-5-methyl-2H-pyrazol-3-yl)-pyrrolidine-2-carboxylic acid (1-cyano-cyclopropyl)-amide] | 0.51 | 3540 |
| Cc1cc(N2C[C@H](S(=O)(=O)c3ccc(-n4cccn4)cc3Cl)C[C@H]2C(=O)NC2(C#N)CC2)n(C2CCOCC2)n1 [Example 490] | 0.94 | 4330 |

Continued by falling IC50 [1], values first:

| IC50 [1] [nM] | IC50 [2] [nM] | SMILES |
| --- | --- | --- |
| 2.5 | 3880 | COCCOc1ccc(S(=O)(=O)[C@@H]2C[C@@H](C(=O)NC3(C#N)CC3)N(c3cc(C)nn3C3CCOCC3)C2)c(Cl)c1 [Example 488, (2S,4R)-4-[2-Chloro-4-(2-methoxy-ethoxy)-benzenesulfonyl]-1-[5-methyl-2-(tetrahydro-pyran-4-yl)-2H-pyrazol-3-yl]-pyrrolidine-2-carboxylic acid (1-cyano-cyclopropyl)-amide] |
| 0.85 | 22000 | N#CC1(NC(=O)[C@@H]2C[C@@H](S(=O)(=O)c3ccccc3Cl)CN2c2nc(Cl)ns2)CC1 [Example 486, (2S,4R)-4-(2-Chloro-benzenesulfonyl)-1-(3-chloro-[1,2,4]thiadiazol-5-yl)-pyrrolidine-2-carboxylic acid (1-cyano-cyclopropyl)-amide] |
| 0.655 | 5280 | Cc1cc(N2C[C@H](S(=O)(=O)c3ccc(-n4cccn4)cc3Cl)C[C@H]2C(=O)NC2(C#N)CC2)n(C2CCC2)n1 [Example 491, (2S,4R)-4-(2-Chloro-4-pyrazol-1-yl-benzenesulfonyl)-1-(2-cyclobutyl-5-methyl-2H-pyrazol-3-yl)-pyrrolidine-2-carboxylic acid (1-cyano-cyclopropyl)-amide] |
